Values of other authors as cited in patent US9278976B2, “Aminotetrahydropyrans as dipeptidyl peptidase-IV inhibitors for the treatment of diabetes” (Merck Sharp & Dohme Corp., priority 2008, dated 2016).

Legend:
[1] = rats; doubled from day 7
[2] = mouse, cyclophosphamide-induced neutropenia

Compound	cardiac allograft survival [1] [day]	hematopoiesis [2]
CC(C)N1CCC(c2ccccc2)(c2ccccc2)CC1 [Prodipine, Pro-Pro-diphenyl-phosphonate]	14	–
CC(C)[C@H](N)C(=O)N1CCC[C@H]1B(O)O [Val-Boro-Pro]	–	stimulated hematopoiesis
